Source: publication PMC12155096 (International Journal of Molecular Sciences, 2025)

How the values were obtained:
human CYP1A2 = molecular target: T1, human CYP1A2 (Homo sapiens, UniProt P05177)
T1 sequence (P05177 1-516): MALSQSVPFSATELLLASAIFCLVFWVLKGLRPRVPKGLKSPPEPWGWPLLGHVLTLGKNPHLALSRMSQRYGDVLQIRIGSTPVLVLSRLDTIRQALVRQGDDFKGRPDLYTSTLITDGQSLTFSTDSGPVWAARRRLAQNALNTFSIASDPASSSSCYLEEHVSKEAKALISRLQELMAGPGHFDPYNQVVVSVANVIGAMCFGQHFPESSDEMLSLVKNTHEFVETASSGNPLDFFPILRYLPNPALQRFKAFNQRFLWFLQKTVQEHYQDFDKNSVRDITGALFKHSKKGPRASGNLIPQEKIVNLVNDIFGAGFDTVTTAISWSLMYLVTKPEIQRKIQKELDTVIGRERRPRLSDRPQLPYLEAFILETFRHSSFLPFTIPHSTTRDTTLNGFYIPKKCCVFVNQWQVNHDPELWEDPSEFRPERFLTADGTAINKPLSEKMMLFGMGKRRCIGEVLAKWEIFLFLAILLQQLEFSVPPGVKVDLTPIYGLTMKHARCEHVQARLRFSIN

CYP3A4 = CYP3A4 (Homo sapiens, UniProt P08684)
Chain of CYP3A4 (P08684 whole entry): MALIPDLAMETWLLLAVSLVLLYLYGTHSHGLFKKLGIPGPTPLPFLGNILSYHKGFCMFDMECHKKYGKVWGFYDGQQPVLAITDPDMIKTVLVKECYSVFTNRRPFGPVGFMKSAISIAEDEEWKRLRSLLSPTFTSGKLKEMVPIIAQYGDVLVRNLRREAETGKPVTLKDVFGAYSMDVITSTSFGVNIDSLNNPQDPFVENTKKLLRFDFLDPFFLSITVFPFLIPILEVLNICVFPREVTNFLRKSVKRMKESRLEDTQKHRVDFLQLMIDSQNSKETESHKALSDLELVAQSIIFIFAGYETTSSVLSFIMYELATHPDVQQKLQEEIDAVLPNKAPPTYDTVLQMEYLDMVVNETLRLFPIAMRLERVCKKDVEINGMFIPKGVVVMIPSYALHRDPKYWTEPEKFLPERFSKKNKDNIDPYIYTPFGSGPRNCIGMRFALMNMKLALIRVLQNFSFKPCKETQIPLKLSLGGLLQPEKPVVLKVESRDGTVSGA

[1] = molecular target: Photinus pyralis (firefly) luciferase (Photinus pyralis, UniProt P08659); assay: biochemical; type: biochemical
Chain of Photinus pyralis (firefly) luciferase (P08659 whole entry): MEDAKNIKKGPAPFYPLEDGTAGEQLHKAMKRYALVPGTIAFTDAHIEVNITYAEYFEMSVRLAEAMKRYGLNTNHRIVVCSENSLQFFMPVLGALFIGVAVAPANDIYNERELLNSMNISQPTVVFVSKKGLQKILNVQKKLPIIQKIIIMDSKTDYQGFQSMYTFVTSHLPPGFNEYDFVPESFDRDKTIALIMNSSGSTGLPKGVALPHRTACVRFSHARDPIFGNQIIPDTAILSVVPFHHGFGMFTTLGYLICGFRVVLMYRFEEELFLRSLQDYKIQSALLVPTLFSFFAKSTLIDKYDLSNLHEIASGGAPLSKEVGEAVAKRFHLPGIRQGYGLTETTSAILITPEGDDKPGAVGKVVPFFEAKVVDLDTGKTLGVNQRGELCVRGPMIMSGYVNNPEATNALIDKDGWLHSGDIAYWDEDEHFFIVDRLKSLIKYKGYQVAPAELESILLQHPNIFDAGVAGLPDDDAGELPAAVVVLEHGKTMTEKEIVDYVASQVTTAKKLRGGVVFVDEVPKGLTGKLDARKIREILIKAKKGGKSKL

human CYP2C19 = human CYP2C19 (Homo sapiens, UniProt P33261)
Chain of human CYP2C19 (P33261 whole entry): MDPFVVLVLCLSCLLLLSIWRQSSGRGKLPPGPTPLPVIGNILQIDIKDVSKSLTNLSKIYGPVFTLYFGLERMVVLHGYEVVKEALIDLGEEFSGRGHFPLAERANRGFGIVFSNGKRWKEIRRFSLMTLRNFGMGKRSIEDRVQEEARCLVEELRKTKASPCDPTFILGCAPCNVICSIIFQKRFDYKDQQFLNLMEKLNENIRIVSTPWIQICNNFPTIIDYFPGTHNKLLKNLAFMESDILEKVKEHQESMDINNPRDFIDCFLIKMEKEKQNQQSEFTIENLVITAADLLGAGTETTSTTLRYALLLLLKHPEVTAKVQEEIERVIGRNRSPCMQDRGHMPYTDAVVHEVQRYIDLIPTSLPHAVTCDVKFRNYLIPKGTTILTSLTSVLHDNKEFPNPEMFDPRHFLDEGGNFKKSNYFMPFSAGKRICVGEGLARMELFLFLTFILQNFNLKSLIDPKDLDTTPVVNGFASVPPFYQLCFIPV

human CYP2D6 = human CYP2D6 (Homo sapiens, UniProt P10635)
Chain of human CYP2D6 (P10635 whole entry): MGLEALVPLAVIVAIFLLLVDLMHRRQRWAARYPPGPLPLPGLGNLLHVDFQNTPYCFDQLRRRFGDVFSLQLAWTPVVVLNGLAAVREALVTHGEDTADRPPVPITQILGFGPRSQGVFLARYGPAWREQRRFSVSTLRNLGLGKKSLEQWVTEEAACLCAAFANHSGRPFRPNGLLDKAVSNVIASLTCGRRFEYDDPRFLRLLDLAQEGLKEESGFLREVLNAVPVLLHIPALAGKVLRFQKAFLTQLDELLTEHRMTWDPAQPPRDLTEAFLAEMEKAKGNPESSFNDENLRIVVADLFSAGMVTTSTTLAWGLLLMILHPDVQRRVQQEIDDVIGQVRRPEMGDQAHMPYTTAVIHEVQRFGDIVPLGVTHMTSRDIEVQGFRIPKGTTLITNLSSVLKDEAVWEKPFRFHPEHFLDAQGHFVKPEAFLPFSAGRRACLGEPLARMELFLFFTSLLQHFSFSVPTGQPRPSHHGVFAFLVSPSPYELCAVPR

human CYP2C9 = human CYP2C9 (Homo sapiens, UniProt P11712)
Chain of human CYP2C9 (P11712 whole entry): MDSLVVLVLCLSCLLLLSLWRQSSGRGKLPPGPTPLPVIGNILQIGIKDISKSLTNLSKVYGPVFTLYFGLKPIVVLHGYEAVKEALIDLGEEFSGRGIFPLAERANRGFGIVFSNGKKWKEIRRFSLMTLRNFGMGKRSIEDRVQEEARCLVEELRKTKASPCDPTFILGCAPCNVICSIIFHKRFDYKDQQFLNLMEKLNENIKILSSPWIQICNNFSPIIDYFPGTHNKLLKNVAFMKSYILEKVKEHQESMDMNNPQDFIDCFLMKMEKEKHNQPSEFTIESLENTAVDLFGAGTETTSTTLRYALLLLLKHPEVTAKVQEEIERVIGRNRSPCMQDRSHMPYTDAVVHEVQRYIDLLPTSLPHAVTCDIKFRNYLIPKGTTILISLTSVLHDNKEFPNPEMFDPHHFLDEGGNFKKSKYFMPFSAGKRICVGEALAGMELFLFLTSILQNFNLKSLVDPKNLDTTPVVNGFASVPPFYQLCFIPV

| Compound | IC50 (human CYP1A2) | CYP3A4 IC50 (half-maximal inhibitory concentration) (CYP3A4) | Luciferase IC50 (half-maximal inhibitory concentration) [1] | IC50 (human CYP2C19) | CYP2D6 Efficacy (human CYP2D6) | IC50 (human CYP2D6) | CYP2C9 Efficacy (human CYP2C9) | IC50 (human CYP2C9) | IC50 (CYP3A4) | CYP2C9 IC50 (half-maximal inhibitory concentration) (human CYP2C9) | further results |
| --- | --- | --- | --- | --- | --- | --- | --- | --- | --- | --- | --- |
| CCCCCCCCCCCCCC[P+](CCCC)(CCCC)CCCC.CCCCCCCCCCCCc1ccc(S(=O)(=O)[O-])cc1 | 24.3 µM | 7.93 ± 2.21 (104 ± 17) µM | Inactive | 22 µM | 0.21 ± 0.10 (-107 ± 3) % | 0.21 µM | 15.74 ± 3.82 (-84 ± 8) % | 15.7 µM | – | – | CYP1A2 AC50 (half-maximal activity concentration) (human CYP1A2): Inconclusive inhibitor; CYP1A2 Efficacy (in parenthesis) (human CYP1A2): 24.26 ± 16.34 (-39 ± 1) %; AC50 (CYP3A4): 7.93 µM; CYP3A4 Efficacy (in parenthesis) (CYP3A4): 7.93 ± 2.21 (104 ± 17) %; CYP2C19 Efficacy (human CYP2C19): 21.96 ± 3.74 (-142 ± 38) %; CYP2C19 Efficacy (in parenthesis) (human CYP2C19): 21.96 ± 3.74 (-142 ± 38) %; CYP2D6 Efficacy (in parenthesis) (human CYP2D6): 0.21 ± 0.1 (-107 ± 3) %; CYP2C9 Efficacy (in parenthesis) (human CYP2C9): 15.74 ± 3.82 (-84 ± 8) % |
| COc1cccc(CCc2ccccc2OCC(CN(C)C)OC(=O)CCC(=O)O)c1.Cl (stereo not shown) [Sarpogrelate hydrochloride] | 16.2 µM | – | Inactive | 36.8 µM | 0.42 ± 0.24 (-101 ± 2) % | – | – | – | 6.72 µM | Inactive | – |
| Pentaerythritol allyl ether | 23.6 µM | – | Inactive | 0.83 µM | – | – | – | 5.98 µM | 13 µM | – | CYP2D6 IC50 (half-maximal inhibitory concentration) (human CYP2D6): Inactive |
| OCC(c1ccc(Cl)cc1)c1ccc(Cl)cc1 [2,2-Bis(4-chlorophenyl)ethanol] | 34.3 µM | 18.71 ± 6.46 (64 ± 10) µM | Inactive | 0.14 µM | – | – | 11.71 ± 0.79 (-108 ± 10) % | – | – | – | CYP1A2 Efficacy (human CYP1A2): 34.28 ± 2.23 (-78 ± 6) %; CYP1A2 Efficacy (in parenthesis) (human CYP1A2): 34.28 ± 2.23 (-78 ± 6) %; AC50 (CYP3A4): 18.7 µM; CYP3A4 Efficacy (in parenthesis) (CYP3A4): 18.71 ± 6.46 (64 ± 10) %; CYP2C19 Efficacy (human CYP2C19): 0.14 ± 0.07 (-161 ± 31) %; CYP2C19 Efficacy (in parenthesis) (human CYP2C19): 0.14 ± 0.07 (-161 ± 31) %; CYP2D6 IC50 (half-maximal inhibitory concentration) (human CYP2D6): Inactive; AC50 (human CYP2C9): 11.7 µM; CYP2C9 Efficacy (in parenthesis) (human CYP2C9): 11.71 ± 0.79 (-108 ± 10) % |
| CCCCCCCCCCCCCC[P+](CCCCCC)(CCCCCC)CCCCCC.O=S(=O)([N-]S(=O)(=O)C(F)(F)F)C(F)(F)F | 37 µM | – | Inactive | 43.7 µM | – | 0.25 µM | – | 6.41 µM | 3.13 µM | – | – |
| C[C@@H]1C[C@H]2[C@@H]3CCC4=CC(=O)C=C[C@]4(C)[C@@]3(F)[C@@H](O)C[C@]2(C)[C@@]1(O)C(=O)COC(=O)c1ccncc1 [Dexamethasone isonicotinate] | – | – | Inactive | 23.4 µM | – | 9.5 µM | – | 7.32 µM | 0.81 µM | – | CYP1A2 IC50 (half-maximal inhibitory concentration) (human CYP1A2): Inactive |
| Trimethylolpropane ethoxylate triacrylate | 54.5 µM | – | Inactive | 20.5 µM | – | 68.9 µM | – | 22.4 µM | 0.9 µM | – | CYP1A2 Efficacy (in parenthesis) (human CYP1A2): 54.51 ± 3.69 (-43 ± 8) %; CYP3A4 Efficacy (in parenthesis) (CYP3A4): 0.9 ± 0.43 (-82 ± 18) %; CYP2C19 Efficacy (in parenthesis) (human CYP2C19): 20.46 ± 7.7 (-131 ± 32) %; CYP2D6 Efficacy (in parenthesis) (human CYP2D6): 68.92 ± 8.79 (-43 ± 5) %; CYP2C9 Efficacy (in parenthesis) (human CYP2C9): 22.42 ± 6.63 (-90 ± 14) % |
| C[N+](C)(CCOc1ccccc1)Cc1cccs1.[I-] | – | Inactive | Inactive | – | – | 0.15 µM | – | – | – | Inactive | CYP1A2 IC50 (half-maximal inhibitory concentration) (human CYP1A2): Inactive; CYP2C19 IC50 (half-maximal inhibitory concentration) (human CYP2C19): Inactive |
| COc1cc2c(cc1OC)C(C(C(=O)N(CCc1ccc(OC)c(OC)c1OC)CCc1ccc(OC)c(OC)c1OC)c1ccccc1)=NCC2.Cl (stereo not shown) [Pinokalant hydrochloride] | 37.3 µM | – | Inactive | 19.6 µM | 9.34 ± 4.19 (-64 ± 10) % | – | 11.86 ± 0.77 (-103 ± 7) % | – | 0.57 µM | – | – |
| CCc1ccc(C(=O)C(C)CN2CCCCC2)cc1.Cl (stereo not shown) [Eperisone hydrochloride] | 29.2 µM | Inactive | Inactive | 4.72 µM | – | 0.51 µM | – | – | – | Inactive | – |
| Cl.ClCCCN1CCN(c2cccc(Cl)c2)CC1 | – | – | – | – | 0.79 ± 0.18 (-96 ± 4) % | – | 16.75 ± 1.09 (-48 ± 5) % | – | – | – | AC50 (human CYP1A2): 16.1 µM; CYP1A2 Efficacy (human CYP1A2): 16.12 ± 1.09 (-77 ± 4) %; AC50 (CYP3A4): 15.5 µM; CYP3A4 IC50 (CYP3A4): 15.49 ± 0 (111 ± 12) µM; Luciferase IC50 [1]: Inactive; AC50 (human CYP2C19): 8.86 µM; CYP2C19 Efficacy (human CYP2C19): 8.86 ± 2.03 (-125 ± 5) %; AC50 (human CYP2D6): 0.79 µM; AC50 (human CYP2C9): 16.8 µM |
| CN1[C@@H]2CCC(C)(C)[C@H]1C[C@H](OC(=O)C(O)(c1cccs1)c1cccs1)C2 [Mazaticol] | – | – | Inactive | – | – | 14.4 µM | – | – | 0.22 µM | Inactive | CYP1A2 IC50 (half-maximal inhibitory concentration) (human CYP1A2): Inactive; CYP2C19 IC50 (half-maximal inhibitory concentration) (human CYP2C19): Inactive |
| CCc1cc(Cl)c(OC)c(C(=O)NC[C@@H]2CCCN2CC)c1O.Cl [Eticlopride hydrochloride] | 13.5 µM | Inactive | Inactive | – | 0.67 ± 0.09 (-96 ± 1) % | – | – | – | – | Inactive | CYP2C19 IC50 (half-maximal inhibitory concentration) (human CYP2C19): Inactive |
| Cl.FC(F)(F)c1cccc(C2=CCN(CCc3ccc4ccccc4c3)CC2)c1 [Xaliproden hydrochloride] | 28.6 µM | 19.77 ± 4.14 (120 ± 18) µM | Inactive | – | 0.28 ± 0.18 (-100 ± 3) % | 0.28 µM | 22.52 ± 6.28 (29 ± 5) % | – | – | 22.52 ± 6.28 (29 ± 5) µM | CYP1A2 Efficacy (human CYP1A2): 28.62 ± 14.29 (-37 ± 3) %; AC50 (CYP3A4): 19.8 µM; CYP2C19 IC50 (half-maximal inhibitory concentration) (human CYP2C19): Inactive |
| CCCCCCCCCCCCCCCCn1cc[n+](C)c1.[Cl-] [1-Hexadecyl-3-methylimidazolium chloride] | 69.7 µM | – | Inactive | 53 µM | – | 0.38 µM | – | 55.4 µM | 63.6 µM | – | CYP1A2 Efficacy (in parenthesis) (human CYP1A2): 69.7 ± 29.29 (-90 ± 28) %; CYP3A4 Efficacy (in parenthesis) (CYP3A4): 63.62 ± 15.46 (-70 ± 19) %; CYP2C19 Efficacy (in parenthesis) (human CYP2C19): 52.99 ± 35.71 (-145 ± 35) %; CYP2D6 Efficacy (in parenthesis) (human CYP2D6): 0.38 ± 0.13 (-102 ± 3) %; CYP2C9 Efficacy (in parenthesis) (human CYP2C9): 55.36 ± 23.27 (-121 ± 6) % |
| CC(=O)[O][Sn]([c]1ccccc1)([c]1ccccc1)[c]1ccccc1 [Triphenyltin acetate] | 47.5 µM | – | – | 4.84 µM | – | 0.81 µM | – | 1.36 µM | 8.45 µM | – | IC50 ([1]; read-out: Luciferase IC50): 3.81 µM |
